Columns and labels:
[1] = target: T1, Genome polyprotein (dengue virus type 2, UniProt P29990); assay: Inhibition of DENV2 NS2B-NS3 protease
[2] = target: T1, Genome polyprotein; assay: Binding affinity to DENV2 NS2B/NS3 protease assessed as inhibition constant
[3] = Permeability of the compound at pH 7.4; assay type: ADME; conditions: PAMPA, read-out: permeability
[4] = Inhibition of DENV2 pro; set-up: species or system dengue virus type 2
[5] = tested on: dengue virus type 2; assay: Antiviral activity against Dengue virus 2 infected in african green monkey Vero cells assessed as reduction in viral titer; assay type: functional, organism-based
[6] = target: T1, Genome polyprotein; assay: Inhibition of DENV2 NS2B-NS3 protease using Boc-Gly-Arg-Arg-MCA as substrate by fluorescence assay
[7] = Binding affinity to wildtype DENV3 protease assessed as inhibition constant using [Ac-[D-EDANS]KRRSWP[K-DABCYL]-AMIDE] as substrate by FRET-based enzymatic assay; set-up: species or system dengue virus type 3
[8] = target: T1, Genome polyprotein; assay: Inhibition of DENV2 NS2B-NS3 protease using fluorophore-tagged Bz-nKRR-AMC as substrate preincubated for 30 mins followed by substrate addition measured after 90 mins by microplate reader analysis
[9] = target: T1, Genome polyprotein; assay: Inhibition of DENV2 NS2B-NS3 protease using Boc-Gly-Arg-Arg-7-amino-4-methylcoumarin as substrate incubated for 10 mins by fluorometric assay
[10] = tested on: dengue virus type 2; assay: Antiviral activity against DENV2; assay type: functional, organism-based
[11] = target: T1, Genome polyprotein; assay: Inhibition of DENV2 NS2B-NS3 protease using […] as substrate preincubated for 10 mins followed by substrate addition and incubated for 60 mins by fluorescence spectroscopy assay

T1 sequence (P29990 1346-1475 limits assumed): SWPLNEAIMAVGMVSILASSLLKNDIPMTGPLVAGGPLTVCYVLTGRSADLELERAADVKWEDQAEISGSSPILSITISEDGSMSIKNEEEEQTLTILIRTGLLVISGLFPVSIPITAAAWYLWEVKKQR
T1 sequence (P29990 1476-2093 limits assumed): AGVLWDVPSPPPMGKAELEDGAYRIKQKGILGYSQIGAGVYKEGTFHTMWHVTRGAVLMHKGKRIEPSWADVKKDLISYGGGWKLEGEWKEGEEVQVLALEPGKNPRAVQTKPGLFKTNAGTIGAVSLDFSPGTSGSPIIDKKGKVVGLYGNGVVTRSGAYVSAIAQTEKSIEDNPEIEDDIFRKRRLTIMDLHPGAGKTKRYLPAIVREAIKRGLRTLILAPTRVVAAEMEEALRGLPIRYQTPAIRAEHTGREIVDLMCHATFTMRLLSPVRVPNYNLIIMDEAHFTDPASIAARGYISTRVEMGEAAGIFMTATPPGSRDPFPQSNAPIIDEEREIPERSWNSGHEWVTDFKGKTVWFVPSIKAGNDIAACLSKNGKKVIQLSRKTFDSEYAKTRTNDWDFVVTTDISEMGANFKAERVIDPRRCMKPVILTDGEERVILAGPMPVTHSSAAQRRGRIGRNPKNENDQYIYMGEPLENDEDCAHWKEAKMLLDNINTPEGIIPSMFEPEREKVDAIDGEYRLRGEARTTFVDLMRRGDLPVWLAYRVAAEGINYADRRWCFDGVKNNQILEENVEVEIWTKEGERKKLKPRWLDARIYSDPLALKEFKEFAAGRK

## CCN1/C(=C/C=C/c2oc3ccc4ccccc4c3[n+]2CC)Oc2ccc3ccccc3c21
[1]
  IC50: 27 µM

## N#C/C(=C\c1ccc(O)cc1)C(N)=O
[1]
  Ki: 35.7 µM
[2]
  Ki: 35.7 µM
[3]
  Papp: 8.4 ×10⁻⁶ cm/s

## N=C(N)Nc1ccc(OC(=O)c2ccc(NC(=N)N)cc2)cc1
[1]
  Ki: 2 µM
[2]
  Ki: 2 µM

## N=C(N)NCCC[C@H](NC(=O)c1nccs1)C(=O)N[C@@H](CCCCN)C(=O)N[C@@H](C(N)=O)c1ccc(OCc2ccc(C(F)(F)F)cc2)cc1
[4]
  IC50: 0.018 µM

## N=C(N)N/N=C/c1ccc(/C=N/NC(=N)N)cc1
[1]
  Ki: 44 µM
[2]
  Ki: 44 µM

## O=C(O)c1cc2sc(NC(=O)c3ccccc3Sc3ccc(C(F)(F)F)cc3)nc2cc1O
[5]
  EC50: 0.9 µM

## CCCCC1C(C(=O)N(C)OC)C(c2ccccc2)CCN1C(=O)OC(C)(C)C (stereo not given)
[6]
  IC50: 257 µM

## O=C(Nc1nc2cc(O)c(O)cc2s1)c1ccccc1Sc1ccc(C(F)(F)F)cc1
[5]
  EC50: > 3 µM
[4]
  IC50: 3.6 µM

## CC[C@H](C)[C@@H]1NC(=O)[C@H](CCCNC(=N)N)NC(=O)[C@H](C(C)C)NC(=O)[C@H](CCCNC(=N)N)NC(=O)[C@@H](NC(=O)[C@@H]2CCCN2)CSSC[C@@H](C(=O)N[C@H](C)C(=O)O)NC(=O)CNC(=O)CNC(=O)[C@H](CC(=O)O)NC1=O
[7]
  Ki: 35.8 µM

## COc1ccc(S(=O)(=O)n2nc(Oc3ccc(-c4ccccc4)cc3)cc2N)cc1
[8]
  IC50: 2.9 µM

## O=C(Nc1nc2ccc([N+](=O)[O-])cc2s1)c1ccccc1Sc1ccc(C(F)(F)F)cc1
[9]
  IC50: 22 µM
[5]
  EC50: 0.1 µM

## CC[C@H](C)[C@@H]1NC(=O)[C@H](CCCNC(=N)N)NC(=O)[C@H](C)NC(=O)[C@H](CCCNC(=N)N)NC(=O)[C@@H](NC(=O)[C@@H]2CCCN2)CSSC[C@@H](C(=O)N[C@H](C)C(=O)O)NC(=O)CNC(=O)CNC(=O)[C@H](CC(=O)O)NC1=O
[7]
  Ki: 69.3 µM

## N=C(N)NCCC[C@@H](NC1NC(=O)C(N[C@H](CCCCN)C(=O)O)NC(=O)C(N2CCC[C@@H]2C(=O)O)NC(=O)C(N[C@H](Cc2ccccc2)C(=O)O)NC(=O)C(N[C@H](CO)C(=O)O)NC(=O)C(N[C@@H](Cc2ccccc2)C(=O)O)NC(=O)C(N[C@@H](CO)C(=O)O)NC(=O)[C@H](CCCCN)NC1=O)C(=O)O (stereo not given in full)
[4]
  IC50: 0.95 µM

## Cc1c(O)cccc1C(=O)NC(CSc1ccccc1)C(O)CN1CC2CCCCC2C[C@H]1C(=O)NC(C)(C)C (stereo not given in full)
[10]
  EC50: 3.5 µM

## COc1cc2nc(NC(=O)c3ccccc3Sc3ccc(C(F)(F)F)cc3)sc2cc1OC
[5]
  EC50: 2.5 µM

## CC[C@H](C)[C@@H]1NC(=O)[C@H](CCCNC(=N)N)NC(=O)[C@H](C(C)C)NC(=O)[C@H](CCCNC(=N)N)NC(=O)[C@@H](NC(=O)[C@@H]2CCCN2)CSSC[C@@H](C(=O)N[C@H](C)C(=O)O)NC(=O)CNC(=O)CNC(=O)[C@H](Cc2ccc(O)cc2)NC1=O
[7]
  Ki: 25.6 µM

## O=C(Nc1nc2ccc([N+](=O)[O-])cc2s1)c1ccccc1Sc1ccc([N+](=O)[O-])cc1
[9]
  IC50: 34 µM

## CC[C@H](C)[C@@H]1NC(=O)[C@H](Cc2c[nH]c3ccccc23)NC(=O)[C@H](C)NC(=O)[C@H](CCCNC(=N)N)NC(=O)[C@@H](NC(=O)[C@@H]2CCCN2)CSSC[C@@H](C(=O)N[C@H](C)C(=O)O)NC(=O)CNC(=O)CNC(=O)[C@H](Cc2ccc(O)cc2)NC1=O
[7]
  Ki: 145 µM

## Oc1c(C(Nc2ccccc2)c2ccccn2)ccc2cccnc12 (stereo not given)
[1]
  Ki: 17 µM
[2]
  Ki: 17 µM
[3]
  Papp: 4.12 ×10⁻⁶ cm/s

## O=C(Nc1nc2ccc([N+](=O)[O-])cc2s1)c1cccc(Sc2ccc([N+](=O)[O-])cc2)c1
[9]
  IC50: 26 µM
[5]
  EC50: 0.3 µM

## COc1ccc(C(=O)CN2C/C(=C/c3ccc([N+](=O)[O-])cc3)C(=O)/C(=C\c3ccc([N+](=O)[O-])cc3)C2)cc1
[11]
  IC50: 16.2 µM

Reference: ChEMBL document CHEMBL5096200, “A short survey of dengue protease inhibitor development in the past 6 years (2015-2020) with an emphasis on similarities between DENV and SARS-CoV-2 proteases” (Bioorg Med Chem, 2021)
